The text below walks through data of publication PMC9227096, “Design, Synthesis, and In Vitro, In Silico and In Cellulo Evaluation of New Pyrimidine and Pyridine Amide and Carbamate Derivatives as Multi-Functional Cholinesterase Inhibitors” (Pharmaceuticals, 2022).

In general, inhibition refers to the relative decrease from the control value, in per cent.

Like-named read-outs stand apart in the source and are kept apart here.

Common to all, as to assay type: biochemical
In assay [1] the target is T1, Electrophorus electricus AChE (EeAChE) (Electrophorus electricus, UniProt O42275).
T1 construct: purchased Sigma-Aldrich (Milan, Italy)
T1 sequence (O42275 24-633): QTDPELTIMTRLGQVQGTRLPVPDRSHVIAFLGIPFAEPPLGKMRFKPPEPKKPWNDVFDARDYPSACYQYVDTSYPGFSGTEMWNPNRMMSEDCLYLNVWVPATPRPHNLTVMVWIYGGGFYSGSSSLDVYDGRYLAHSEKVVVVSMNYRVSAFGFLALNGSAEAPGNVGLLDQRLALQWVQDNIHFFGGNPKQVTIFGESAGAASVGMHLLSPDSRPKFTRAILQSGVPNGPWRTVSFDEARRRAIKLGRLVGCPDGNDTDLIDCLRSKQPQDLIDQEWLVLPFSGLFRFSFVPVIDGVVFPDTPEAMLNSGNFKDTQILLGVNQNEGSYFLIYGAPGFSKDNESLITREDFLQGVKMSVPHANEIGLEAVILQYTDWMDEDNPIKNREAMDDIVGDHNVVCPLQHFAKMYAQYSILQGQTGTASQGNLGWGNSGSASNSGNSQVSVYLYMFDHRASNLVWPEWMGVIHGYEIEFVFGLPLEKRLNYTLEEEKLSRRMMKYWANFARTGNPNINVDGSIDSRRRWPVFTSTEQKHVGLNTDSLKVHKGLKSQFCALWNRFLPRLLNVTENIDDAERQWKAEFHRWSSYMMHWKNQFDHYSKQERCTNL
Put plainly: Ellman's spectrophotometric method, percent inhibition of EeAChE (zero time and after 1 h incubation). To be noted: for % Inhibition vs. EeAChE ± SD: [I] 9 µM; for inhibition at 0.9 µM: read-out: % Inhibition vs. EeAChE ± SD, [I] 900 nM. Here is the method: (§1) Regarding the synthesized compounds enzymatic inhibition studies were carried out on Electrophorus electricus AChE (EeAChE) and equine BChE (eqBChE), according to Ellman’s spectrophotometric method.
(§2) All other chemical and biological reagents and solvents used were of the highest analytical, commercially available grade. The water, utilized for the preparation of the phosphate buffer and of the solutions of compounds, was distilled and filtered on nylon membrane filters with 0.2 μm pore size with the Millipore® Filtration apparatus before each use. Micropipettes Labmate (BRAND Dig. 10–100 μL; Dig. 100–1000 μL; Dig. 0.1–2 μL) and Transferpette (HIGH TECH LAB LM200: 20–200 μL; LM5000: 1000–5000 μL) were used to collect the samples. The assays were carried out by double beam UV–Vis Lambda 40 Perkin Elmer spectrophotometer, using optical polystyrene cuvettes (10 × 10 × 45 mm, 340–800 nm optical transparency), each measure was repeated at least in triplicate. […] Vivaspin® 2 Sartorius, with a membrane of 3000 MWCO (molecular weight cutoff) consisting of polyethersulfone (PES), cellulose triacetate (CTA) and hydrosart, was used for the ultrafiltration procedures. An ALC PK110 bench-top centrifuge was used for centrifugation. The spectrophotometric method of Ellman, with minor modifications, was used to evaluate the inhibition of cholinesterase enzymes. […] EeAChE and eqBChE were periodically tested to evaluate the effective enzymatic activity.
(§3) An amount of 3.0 mL of a solution in 0.1 M phosphate buffer (pH = 7.4) containing DTNB (0.25 mM) and EeAChE (0.083 UmL^−1) or eqBChE (0.083 UmL^−1) were placed in a polystyrene cuvette of 1.0 cm path length; 1 µL of a solution in DMSO of the tested compound was added to obtain in cuvette concentration range 9 µM–0.09 µM. With this solution the blank was made.
(§4) Each experiment was repeated at least in triplicate.
(§5) The cuvettes were prepared consecutively at intervals of 3 min to allow equal incubation times.
(In general: In Ellman's method for cholinesterases, released thiocholine reacts with DTNB.)

The target in assay [2] is T2, equine BChE (eqBChE) (Equus caballus, UniProt P81908).
T2 construct: purchased Sigma-Aldrich (Milan, Italy)
T2 sequence (P81908 whole entry): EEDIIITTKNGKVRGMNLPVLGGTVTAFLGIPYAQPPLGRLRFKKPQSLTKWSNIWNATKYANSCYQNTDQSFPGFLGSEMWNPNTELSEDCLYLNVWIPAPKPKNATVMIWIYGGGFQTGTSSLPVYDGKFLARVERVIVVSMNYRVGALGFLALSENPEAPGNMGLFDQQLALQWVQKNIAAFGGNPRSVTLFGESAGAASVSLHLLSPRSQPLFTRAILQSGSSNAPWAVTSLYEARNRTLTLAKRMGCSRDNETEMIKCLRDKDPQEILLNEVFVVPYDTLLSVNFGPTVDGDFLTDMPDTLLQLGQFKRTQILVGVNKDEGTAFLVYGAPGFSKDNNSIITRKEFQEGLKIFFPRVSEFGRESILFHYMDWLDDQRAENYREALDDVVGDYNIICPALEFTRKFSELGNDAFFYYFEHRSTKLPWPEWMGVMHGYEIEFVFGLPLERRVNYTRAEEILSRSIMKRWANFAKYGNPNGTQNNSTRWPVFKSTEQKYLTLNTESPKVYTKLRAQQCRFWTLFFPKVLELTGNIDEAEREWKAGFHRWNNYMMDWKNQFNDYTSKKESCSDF
Put plainly: Ellman's spectrophotometric method, percent inhibition of eqBChE (zero time and after 1 h incubation). To be noted: for inhibition at 9 µM / % Inhibition vs. eqBChE ± SD: [I] 9 µM; for inhibition at 9 µM / inhibition at 0.9 µM: read-out: % Inhibition vs. eqBChE ± SD. The method, then: as §1, §2, §3, §4, §5

The target in assay [3] is T2, equine BChE (eqBChE). The assay is described as follows: Reversibility of inhibition vs. eqBChE (ultrafiltration and washing). To be noted: for inhibition at 54 µM: carbaryl 54 µM. The method, then: Moreover, it was evaluated whether the inhibition mechanism of carbamate 18 towards eqBChE is reversible, irreversible or pseudo-irreversible. For this purpose, the percentages of inhibition were determined both after one hour of the incubation of compound 18 (5.4 µM) with eqBChE (1.25 U), both following the removal of the inhibitor and the washing of the enzyme, carried out through ultrafiltration devices for the concentration of biological samples [35, 36]. To validate the method, the same study was performed with carbaryl (54 µM), a known carbamoylating cholinesterase inhibitor.
After the incubation phase, the solution containing the inhibitor not bound to the enzyme was removed by centrifugation, retaining eqBChE on the membrane of the ultrafiltration devices. Then the enzyme was washed with phosphate buffer, to remove the bound inhibitor and to restore the enzyme activity.
Three solutions were prepared in 0.1 M phosphate buffer (pH = 7.4), containing eqBChE (0.50 UmL^−1), DTNB (0.3 mM) and acetylthiocholine (10 mM), respectively. A solution of compound 18 in DMSO (2.7 mM) was prepared. Then six Vivaspin® were used: • three were prepared with 2.5 mL of eqBChE solution (0.50 UmL^−1) and 5 µL of inhibitor solution; • three were prepared with 2.5 mL of eqBChE solution (0.50 UmL^−1) and 5 µL of DMSO.
The Vivaspin® thus prepared were incubated for 1 h at 25 °C. After this time the percentage of inhibition was determined following the Ellman method. The blank was recorded by taking 500 µL from the Vivaspin® and diluting them in the cuvette in 2.5 mL of DTNB solution (0.3 mM). The reaction was activated by adding 30 μL of acetylthiocholine solution (10 mM), so as to obtain a final concentration of 100 µM in the cuvette. The absorbance variation was measured between 0.5 and 1.5 min at 412 nm, repeating the measurement for each of the six Vivaspin®.
After this procedure the first centrifugation of the Vivaspin® was carried out for 60 min at 4000 rpm and subsequently the solutions that crossed the membrane and settled in the filtrate tube were removed. In this way the solutions present in the concentrator body were concentrated up to 100 µL. To these solutions 1 mL of 0.1 M phosphate buffer (pH = 7.4) was added and the second centrifugation was carried out for 30 min at 4000 rpm. The solutions present in the concentrator body were concentrated up to 200 µL. The second washing was carried out, adding 1 mL of buffer and centrifuging for 30 min at 4000 rpm. The solutions present in the concentrator body were concentrated up to 250 µL. A third wash was carried out adding 1 mL of buffer and centrifuging for 50 min at 4000 rpm. The solutions present in the concentrator body were concentrated up to 150 µL. At this point, to recover the concentrated solution, the filtrate tube was removed, the concentrator body was turned upside down and inserted inside the concentrate recovery cap. The Vivaspin® was centrifuged for 10 min at 4000 rpm. After this time the recovered solution was taken up with 3 mL of DTNB solution (0.3 mM) and transferred into the cuvette: blank was recorded. The reaction was activated when 30 µL of substrate solution (10 mM) were added so as to have a final concentration of 100 µM in the cuvette. The absorbance variation between 0.5 and 1.5 min was measured at 412 nm, repeating the measurement for each of the recovered solutions.
As a positive control carbaryl was used, for which the same procedure was followed, using a 27 mM carbaryl stock solution in DMSO.

Setting [4] is: read-out: % Inhibition vs. EeAChE ± SD, [I] 9 µM, 0.0833 U/mL enzyme, 100 µM acetylthiocholine.
Where [5] appears, read: 0.0833 U/mL enzyme, 100 µM acetylthiocholine.
[6] abbreviates: [I] 900 nM, 0.0833 U/mL enzyme, 100 µM acetylthiocholine.
Setting [7] is: 1 h, read-out: % Inhibition vs. EeAChE ± SD, [I] = 9 µM, t = 1 h incubation at 25 °C.
The mark [8] stands for this setting: 1 h, [I] = 900 nM, t = 1 h incubation at 25 °C.

`O=C(NCCCCCCNc1ncccn1)c1ccccc1` [Compound 3, N-(6-(pyrimidin-2-ylamino)hexyl)benzamide]: the inhibition at 9 µM was about 3% in assay [1] (setting [4]) and about 9% at equine BChE (eqBChE) [2] (setting [5]).
Turning to `O=C(Cc1ccccc1)NCCCCCCNc1ncccn1` [Compound 4, 2-phenyl-N-(6-(pyrimidin-2-ylamino)hexyl)acetamide], the results for the inhibition at 9 µM (in assay [1] (setting [4]); at equine BChE (eqBChE) [2] (setting [5])) were 5 ± 4.4% and 5.1 ± 4.7%, respectively.
Consider `O=C(Cc1ccc(Oc2ccccc2)cc1)NCCCCCCNc1ncccn1` [Compound 5, 2-(4-phenoxyphenyl)-N-(6-(pyrimidin-2-ylamino)hexyl)acetamide], for which the values for the inhibition at 9 µM (in assay [1] (setting [4]); at equine BChE (eqBChE) [2] (setting [5])) were 10.8 ± 2.7% and 16.6 ± 5.5%, respectively.
Regarding `O=C(C=Cc1ccccc1)NCCCCCCNc1ncccn1` [Compound 6, N-(6-(pyrimidin-2-ylamino)hexyl)cinnamamide], in assay [1] (setting [5]), the “% Inhibition vs. EeAChE ± SD” value was “ns ^c” and the inhibition at 0.9 µM worked out at 7 ± 1.6%. For the same compound, the “% Inhibition vs. eqBChE ± SD” value at equine BChE (eqBChE) [2] (setting [5]) was “ns ^c”.
For the compound `O=C(NCCCCCCNc1ncccn1)c1ccc(Br)cc1` [Compound 7, 4-bromo-N-(6-(pyrimidin-2-ylamino)hexyl)benzamide], the inhibition at 9 µM was found to be 11.2 ± 5% in assay [1] (setting [4]) and 7.4 ± 2% at equine BChE (eqBChE) [2] (setting [5]).
`O=C(NCCCCCCNc1ncccn1)c1ccc(Cl)cc1` [Compound 8, 4-chloro-N-(6-(pyrimidin-2-ylamino)hexyl)benzamide]: the inhibition at 9 µM in assay [1] (setting [4]) was 9.9 ± 0.8%; at equine BChE (eqBChE) [2] (setting [5]) it was 2.1 ± 3.5%.
Taken in the same sequence, the figures for `COc1ccccc1C(=O)NCCCCCCNc1ncccn1` [Compound 9, 2-methoxy-N-(6-(pyrimidin-2-ylamino)hexyl)benzamide] were 7.2 ± 0.8% and 9.3 ± 2.4%.
On to `O=C(NCCCCCCNc1ncccn1)c1cc2ccccc2[nH]1` [Compound 11, N-(6-(pyrimidin-2-ylamino)hexyl)-1H-indole-2-carboxamide], for which, in assay [1] (setting [5]), the “% Inhibition vs. EeAChE ± SD” value is reported as “ns ^c” and the inhibition at 0.9 µM worked out at 5.5 ± 1.4%. In addition, the inhibition at 0.9 µM on equine BChE (eqBChE) [2] (setting [6]) turned out to be 14.1 ± 4.7%. Further, the “% Inhibition vs. eqBChE ± SD” value at equine BChE (eqBChE) [2] (setting [5]) is recorded as “ns ^c”.
For `O=C(Cc1ccccc1)NCCCCCCNc1ccccn1` [Compound 13, 2-phenyl-N-(6-(pyridine-2-ylamino)hexyl)acetamide], the inhibition at 9 µM in assay [1] (setting [4]) was found to be 46.7 ± 1.1%; at equine BChE (eqBChE) [2] (setting [5]), 49.1 ± 3.2%. Besides, the inhibition at 0.9 µM at equine BChE (eqBChE) [2] (setting [6]) was found to be 4.3 ± 5.6%.
In the same order, the values of `O=C(C=Cc1ccccc1)NCCCCCCNc1ccccn1` [Compound 15, N-(6-(pyridin-2-ylamino)hexyl)cinnamamide] are 45.4 ± 2.5%, 64.7 ± 2.9% and 31.5 ± 3.1%.
Regarding `O=C(NCCCCCCNc1ncccn1)Oc1ccccc1` [Compound 16, Phenyl (6-(pyrimidin-2-ylamino)hexyl)carbamate], the inhibition at 9 µM in assay [1] (setting [7]) worked out at 7.2 ± 0.8%. Also, on equine BChE (eqBChE) [2] (setting [8]), the inhibition at 0.9 µM amounted to 66.4 ± 5.9%.
On to `O=C(NCCCCCCNc1ncccn1)OCc1ccccc1` [Compound 17, Benzyl (6-(pyrimidin-2-ylamino)hexyl)carbamate], for which, in assay [1] (setting [7]), the inhibition at 9 µM worked out at 10.9 ± 1.4%. At equine BChE (eqBChE) [2] (setting [8]), the inhibition at 0.9 µM stood at 13.3 ± 3.9%.
As for `O=C(NCCCCCCNc1ccccn1)OCc1ccccc1` [Compound 19, Benzyl (6-(pyridin-2-ylamino)hexyl)carbamate], in assay [1] (setting [7]), the inhibition at 9 µM was determined as 45.4 ± 2.7%. Also, the inhibition at 0.9 µM on equine BChE (eqBChE) [2] (setting [8]) came to 32.4 ± 7.5%.
As to `CNC(=O)Oc1cccc2ccccc12` [carbaryl, reference compound], the inhibition at 54 µM at equine BChE (eqBChE) [3] (after ultrafiltration and washing with phosphate buffer, read-out: percentage of inhibition of eqBChE after removal of inhibitor and washing of the enzyme) came to 29.9%; on equine BChE (eqBChE) [3] (before washing, read-out: percentage of inhibition of eqBChE after one hour of incubation), 97.4%. In addition, at equine BChE (eqBChE) [3] (from restoration of enzymatic activity after washing), the “inhibition mechanism towards eqBChE (reversible, irreversible or pseudo-irreversible)” value is given as “pseudo-irreversible”.
